{
  "source": "ChEMBL document CHEMBL1821553",
  "about": "“Yojironins E-I, prenylated acylphloroglucinols from Hypericum yojiroanum” (Bioorg Med Chem Lett, 2011)",
  "key": {"Aspergillus niger": {"system": "Aspergillus niger", "assay": "Antimicrobial activity against Aspergillus niger", "type": "functional, organism-based"}, "Candida albicans": {"system": "Candida albicans", "assay": "Antimicrobial activity against Candida albicans", "type": "functional, organism-based"}, "Cryptococcus neoformans": {"system": "Cryptococcus neoformans", "assay": "Antimicrobial activity against Cryptococcus neoformans", "type": "functional, organism-based"}, "[1]": {"system": "Trichophyton mentagrophytes", "assay": "Antimicrobial activity against Trichophyton mentagrophytes", "type": "functional, organism-based"}, "P388": {"system": "P388", "assay": "Cytotoxicity against mouse P388 cells", "type": "functional, cell-based"}, "KB": {"system": "KB", "assay": "Cytotoxicity against human KB cells", "type": "functional, cell-based"}},
  "data": [
    {"compound": "CCC(C)C(=O)C1=C(O)C(C)=C2O[C@@H](C(C)(C)O)C[C@@]2(C/C=C(\\C)CCC=C(C)C)C1=O", "note": "(stereo partly specified) [YOJIRONIN E]", "values": [
      {"measurement": "IC50", "setting": "Aspergillus niger", "value": 16, "unit": "µg/mL"},
      {"measurement": "IC50", "setting": "Candida albicans", "value": 4, "unit": "µg/mL"},
      {"measurement": "IC50", "setting": "Cryptococcus neoformans", "value": 4, "unit": "µg/mL"},
      {"measurement": "IC50", "setting": "[1]", "value": 4, "unit": "µg/mL"},
      {"measurement": "IC50", "setting": "P388", "value": 3.7, "unit": "µg/mL"},
      {"measurement": "IC50", "setting": "KB", "value": 5, "unit": "µg/mL"}
    ]}
  ]
}
